Reference: US12060347B2 (BRISTOL-MYERS SQUIBB COMPANY, priority 2016, dated 2024)

molecular target: T1, human PAR4 (Homo sapiens, UniProt Q96RI0); test: PAR4 FLIPR assay: antagonism of agonist-peptide-induced calcium mobilization in PAR4-expressing HEK293 cells; format: cell-based; conditions: H-Ala-Phe(4-F)-[…]NH2-induced intracellular calcium mobilization, 11-point curves
T1 construct: expressed in transfected cells; host or cells: HEK293 PAR4 Clone 1.2A (BMS Arctic ID 383940)
T1 sequence (Q96RI0 18-385): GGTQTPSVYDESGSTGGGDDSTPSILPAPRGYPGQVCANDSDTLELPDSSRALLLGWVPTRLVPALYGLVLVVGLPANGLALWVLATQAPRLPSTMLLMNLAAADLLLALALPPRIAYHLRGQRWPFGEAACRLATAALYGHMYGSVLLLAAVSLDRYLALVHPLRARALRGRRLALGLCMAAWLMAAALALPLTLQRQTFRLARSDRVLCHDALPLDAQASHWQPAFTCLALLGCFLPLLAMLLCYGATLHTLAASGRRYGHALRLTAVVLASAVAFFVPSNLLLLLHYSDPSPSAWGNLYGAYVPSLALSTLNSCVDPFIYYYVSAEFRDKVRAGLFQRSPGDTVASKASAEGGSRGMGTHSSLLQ

| SMILES | IC50 |
| --- | --- |
| COc1cc(C(C)O)c2nc(-c3cc(C)cc4nc(OC)cnc34)sc2c1 (centres unmarked) [Example 677, 1-(6-methoxy-2-(2-methoxy-7-methylquinoxalin-5-yl)benzo[d]thiazol-4-yl)ethan-1-ol] | 3.8 nM |
| COc1cnc2c(-c3nc4cc(F)c(OC[C@@H](C)OC(=O)Nc5cnc(C)nc5)nc4s3)cc(C)cc2n1 [Example 678, (R)-1-((6-fluoro-2-(2-methoxy-7-methylquinoxalin-5-yl)thiazolo[5,4-b]pyridin-5-yl)oxy)propan-2-yl (2-methylpyrimidin-5-yl)carbamate] | 1 nM |
| COc1cnc2c(-c3nc4cc(F)c(OC[C@@H](C)OC(=O)Nc5cnc(OC)nc5)nc4s3)cc(C)cc2n1 [Example 679, (R)-1-((6-fluoro-2-(2-methoxy-7-methylquinoxalin-5-yl)thiazolo[5,4-b]pyridin-5-yl)oxy) propan-2-yl (2-methoxypyrimidin-5-yl)carbamate] | 2.5 nM |
| COc1cnc2c(-c3nc4cc(F)c(OC[C@@H](C)OC(=O)Nc5ccncc5)nc4s3)cc(C)cc2n1 [Example 680, (R)-1-((6-fluoro-2-(2-methoxy-7-methylquinoxalin-5-yl)thiazolo[5,4-b]pyridin-5-yl)oxy) propan-2-yl pyridin-4-ylcarbamate] | 0.8 nM |
| COc1cnc2c(-c3nc4cc(F)c(OC[C@@H](C)OC(=O)Nc5ccc(C)nc5)nc4s3)cc(C)cc2n1 [Example 681, (R)-1-((6-fluoro-2-(2-methoxy-7-methylquinoxalin-5-yl)thiazolo[5,4-b]pyridin-5-yl)oxy) propan-2-yl (6-methylpyridin-3-yl)carbamate] | 0.4 nM |
| COc1cnc2c(-c3nc4cc(F)c(OC[C@@H](C)OC(=O)Nc5cncc(F)c5)nc4s3)cc(C)cc2n1 [Example 682, (R)-1-((6-fluoro-2-(2-methoxy-7-methylquinoxalin-5-yl)thiazolo[5,4-b]pyridin-5-yl)oxy) propan-2-yl (5-fluoropyridin-3-yl)carbamate] | 0.9 nM |
| COc1cnc2c(-c3nc4cc(F)c(OC[C@@H](C)OC(=O)Nc5ccc6[nH]c(=O)oc6c5)nc4s3)cc(C)cc2n1 [Example 683, (R)-1-((6-fluoro-2-(2-methoxy-7-methylquinoxalin-5-yl)thiazolo[5,4-b]pyridin-5-yl)oxy) propan-2-yl (2-oxo-2,3-dihydrobenzo[d]oxazol-6-yl)carbamate] | 0.7 nM |
| COc1cnc2c(-c3nc4cc(F)c(OC[C@@H](C)OC(=O)Nc5cccnc5)nc4s3)cc(C)cc2n1 [Example 684, (R)-1-((6-fluoro-2-(2-methoxy-7-methylquinoxalin-5-yl)thiazolo[5,4-b]pyridin-5-yl)oxy) propan-2-yl pyridin-3-ylcarbamate] | 0.7 nM |
| COc1cnc2c(-c3nc4cc(F)c(OC[C@@H](C)OC(=O)Nc5cnc(OCCO)nc5)nc4s3)cc(C)cc2n1 [Example 685, (R)-1-((6-fluoro-2-(2-methoxy-7-methylquinoxalin-5-yl)thiazolo[5,4-b]pyridin-5-yl)oxy) propan-2-yl (2-(2-hydroxyethoxy)pyrimidin-5-yl)carbamate] | 1.7 nM |
| COc1cnc2c(-c3nc4cc(F)c(OC[C@@H](C)OC(=O)Nc5ccc(OCC(F)(F)CO)nc5)nc4s3)cc(C)cc2n1 [Example 687, (R)-1-((6-fluoro-2-(2-methoxy-7-methylquinoxalin-5-yl)thiazolo[5,4-b]pyridin-5-yl)oxy) propan-2-yl (6-(2,2-difluoro-3-hydroxypropoxy)pyridin-3-yl)carbamate] | 0.9 nM |
| COc1cnc2c(-c3nc4cc(F)c(OC[C@@H](C)OC(=O)Nc5cnc(OC[C@@H](C)O)nc5)nc4s3)cc(C)cc2n1 [Example 688, (R)-1-((6-fluoro-2-(2-methoxy-7-methylquinoxalin-5-yl)thiazolo[5,4-b]pyridin-5-yl)oxy) propan-2-yl (2-((R)-2-hydroxypropoxy)pyrimidin-5-yl)carbamate] | 4.5 nM |
